Experiments:
Assay type in all cases: biochemical
[1] = molecular target: T1, Recombinant human AKR1C3 (17β-HSD5) protein (Homo sapiens, UniProt P42330); assay: Inhibition of AKR1C3 (17β-hydroxysteroid dehydrogenase type 5) enzyme, fluorescence assay; settings: inhibitor at 500 nM
T1 construct: made in house; host or cells: E. coli
T1 sequence (P42330 1-323): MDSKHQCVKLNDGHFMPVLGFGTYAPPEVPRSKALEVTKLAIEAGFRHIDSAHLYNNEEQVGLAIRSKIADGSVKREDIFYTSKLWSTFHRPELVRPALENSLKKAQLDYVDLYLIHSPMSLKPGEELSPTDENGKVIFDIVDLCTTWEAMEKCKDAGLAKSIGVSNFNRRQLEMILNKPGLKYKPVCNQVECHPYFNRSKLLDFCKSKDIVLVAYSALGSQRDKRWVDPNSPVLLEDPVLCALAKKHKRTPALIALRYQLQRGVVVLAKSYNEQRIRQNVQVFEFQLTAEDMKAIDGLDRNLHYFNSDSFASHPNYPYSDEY
Protocol: Inhibition of AKR1C3 (17β-Hydroxysteroid Dehydrogenase Type 5) Enzyme
Recombinant human AKR1C3 (17β-HSD5) protein (GenBank Accession No. NM_003739.6) produced in E. coli was used for screening. Recombinant protein (27 nM/1 μg/ml) was incubated in 20 mM KH2PO4, 1 mM EDTA, complete protease inhibitor cocktail, pH 7.4 with 1 μM 9-acetyl-2,3,6,7-tetrahydro-1H,5H,11H-pyrano[2,3-f]pyrido[3,2,1-ij]quinolin-11-one and 1 mM NADPH for 60 to 120 min at RT, in the presence of the potential inhibitor at 500 nM concentration. Inhibitor stock solutions were prepared in DMSO. Final concentration of DMSO was adjusted to 1% in all samples. The samples were analysed by fluorescent measurement with Tecan Spark microplate reader at wavelengths 420 nm for excitation and 510 nm for emission. Samples were evaluated against standards of 9-(1-hydroxyethyl)-2,3,6,7-tetrahydro-1H,5H,11H-pyrano[2,3-f]pyrido[3,2,1-ij]quinolin-11-one at concentrations 1 μM-10 nM. Background fluorescence was reduced from all the samples and standards. The concentrations of formed product were calculated from the standard curve with Tecan Spark Magellan software. The formed product concentrations were used to calculate conversion percentages. The inhibition percentages for the samples were calculated from the conversion percentages.
Inhibition percentages of samples were calculated using following formula: […]

[2] = molecular target: T2, Recombinant human aldo-keto reductase family 1 member C2 (AKR1C2) protein (Homo sapiens, UniProt P52895); assay: Inhibition of the aldo-keto reductase family 1 member C2, 3H-dihydrotestosterone conversion; settings: inhibitor at 10 μM
T2 construct: made in house; host or cells: Sf-9 insect cells (baculovirus)
T2 sequence (P52895 1-323): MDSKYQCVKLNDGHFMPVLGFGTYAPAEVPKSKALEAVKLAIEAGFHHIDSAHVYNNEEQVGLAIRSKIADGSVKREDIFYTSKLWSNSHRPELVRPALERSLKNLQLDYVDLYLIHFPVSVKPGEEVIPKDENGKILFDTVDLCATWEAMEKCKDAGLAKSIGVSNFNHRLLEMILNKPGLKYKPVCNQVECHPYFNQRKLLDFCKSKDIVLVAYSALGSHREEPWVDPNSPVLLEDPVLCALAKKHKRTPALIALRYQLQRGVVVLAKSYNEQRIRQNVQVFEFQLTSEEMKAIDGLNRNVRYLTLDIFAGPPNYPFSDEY
Protocol: Inhibition of the Aldo-Keto Reductase Family 1 Member C2
Recombinant human aldo-keto reductase family 1 member C2 (AKR1C2) protein (GenBank Accession No. NM_001354.6) produced in Sf-9 insect cells with baculovirus was used for screening. Recombinant protein (13.6 nM/0.5 μg/ml) was incubated in 20 mM KH2PO4 pH 7.4, 1 mM EDTA, complete protease inhibitor tablet, 1 mM NADPH with 6.25 nM ^3H-labelled dihydrotestosterone for 45 min at +37° C., in the presence of the potential inhibitor at 10 μM concentration. Inhibitor stock solutions were prepared in DMSO. Final concentration of DMSO was adjusted to 1% in all samples. The enzyme reaction was stopped by addition of 10% trichloroacetic acid (final concentration 1%). Samples were filtrated through […] filtration plate (Merck). Analyses of samples was done with Waters Acquity UPLC H-class equipped with XBridge C18 column and XBridge VanGuard C18 guard column. Acetonitrile: 0.1% formic acid in water (42/58 v/v) with flow of 1.2 ml/min was used for mobile phase. The eluent was mixed with scintillant and the radioactivity was monitored in the eluate by a Scintillation Analyser. The conversion percentage of triated substrate (dihydrotestosterone) to tritiated product (5α-androstane-3α,17β-diol) for each sample was determined by the relative percentages of substrate and product in the chromatogram. The inhibition percentages of samples were calculated using following formula: […]

[3] = molecular target: T3, 17β-Hydroxysteroid Dehydrogenase Type 2 Enzyme (17β-HSD2) (Homo sapiens, UniProt P37059); assay: Inhibition of the 17β-hydroxysteroid dehydrogenase type 2 enzyme, 3H-testosterone conversion; settings: inhibitor at 10 μM
T3 construct: made in house; host or cells: Sf-9 insect cells (baculovirus)
T3 sequence (P37059 1-387): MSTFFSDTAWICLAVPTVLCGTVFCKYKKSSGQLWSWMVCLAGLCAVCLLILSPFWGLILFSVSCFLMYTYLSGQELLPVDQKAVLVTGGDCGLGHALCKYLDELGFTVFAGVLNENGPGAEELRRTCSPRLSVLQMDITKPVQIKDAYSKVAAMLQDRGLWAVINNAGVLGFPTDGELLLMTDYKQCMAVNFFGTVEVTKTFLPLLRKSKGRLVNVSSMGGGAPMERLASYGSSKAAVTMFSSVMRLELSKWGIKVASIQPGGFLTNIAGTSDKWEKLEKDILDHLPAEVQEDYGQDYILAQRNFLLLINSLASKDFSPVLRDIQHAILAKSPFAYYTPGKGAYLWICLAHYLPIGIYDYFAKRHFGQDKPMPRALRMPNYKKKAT
Protocol: Inhibition of the 17β-Hydroxysteroid Dehydrogenase Type 2 Enzyme
Recombinant human 173-HSD2 protein (GenBank Accession No. NM_002153.3) produced in Sf-9 insect cells with baculovirus was used for screening.
Recombinant protein (105 nM/4.5 μg/ml) was incubated in 20 mM KH2PO4 pH 8.5, 1 mM EDTA, complete protease inhibitor cocktail, 1 mM NAD with 56.25 nM testosterone (including ^3H-labelled testosterone) for 30 min at RT, in the presence of the potential inhibitor at 10 μM concentration. Inhibitor stock solutions were prepared in DMSO. Final concentration of DMSO was adjusted to 1% in all samples. The enzyme reaction was stopped by addition of 10% trichloroacetic acid (final concentration 1%). Samples were filtrated through […] filtration plate. Analyses of samples was done with Waters Acquity UPLC H-class equipped with XBridge C18 column and XBridge VanGuard C18 guard column. Acetonitrile: 0.1% formic acid in water (42/58 v/v) with flow of 1.2 ml/min was used for mobile phase. The eluent was mixed with scintillant and the radioactivity was monitored in the eluate by a Scintillation Analyser. The conversion percentage of tritiated substrate (testosterone) to product tritiated (androstenedione) for each sample was determined by the relative percentages of substrate and product in the chromatogram. The inhibition percentages of samples were calculated using following formula: […]

inhibition at 0.5 µM [1] [%]	inhibition at 10 µM [2] [%]	inhibition at 10 µM [3] [%]	SMILES
100	0	8	N#CC(=C1CCN(C(=O)N2CCC(O)CC2)CC1)c1cccc2[nH]ncc12 [Compound 48, 2-(1-(4-hydroxypiperidine-1-carbonyl)piperidin-4-ylidene)-2-(1H-indazol-4-yl)acetonitrile]
103	5	2	N#CC(=C1CCN(C(=O)N2CCOCC2)CC1)c1cccc2[nH]ncc12 [Compound 45, 2-(1H-indazol-4-yl)-2-(1-(morpholine-4-carbonyl)piperidin-4-ylidene)acetonitrile]
98	26	12	N#CC(=C1CCN(C(=O)N2CCc3[nH]ncc3C2)CC1)c1cc(F)cc(F)c1 [Compound 116, 2-(3,5-difluorophenyl)-2-(1-(4,5,6,7-tetrahydro-1H-pyrazolo[4,3-c]pyridine-5-carbonyl)piperidin-4-ylidene)acetonitrile]
99	19	7	N#CC(=C1CCN(C(=O)N2CCn3nncc3C2)CC1)c1ccc(F)cc1 [Compound 13, 2-(4-fluorophenyl)-2-(1-(4,5,6,7-tetrahydro-[1,2,3]triazolo[1,5-a]pyrazine-5-carbonyl)piperidin-4-ylidene)acetonitrile]
72	9	27	N#CC(=C1CCN(C(=O)N2CC(CO)C2)CC1)c1ccc(F)cc1 [Compound 85, 2-(4-fluorophenyl)-2-(1-(3-(hydroxymethyl)azetidine-1-carbonyl)piperidin-4-ylidene)acetonitrile]
99	6	26	Cn1ncc2cccc(C(C#N)=C3CCN(C(=O)N4CCc5nocc5C4)CC3)c21 [Compound 136, 2-(1-methyl-1H-indazol-7-yl)-2-(1-(4,5,6,7-tetrahydroisoxazolo[4,3-c]pyridine-5-carbonyl)piperidin-4-ylidene)acetonitrile]
96	8	12	N#CC(=C1CCN(C(=O)N2CCc3sccc3C2)CC1)c1ccc(Cl)cn1 [Compound 66, 2-(5-chloropyridin-2-yl)-2-(1-(4,5,6,7-tetrahydrothieno[3,2-c]pyridine-5-carbonyl)piperidin-4-ylidene)acetonitrile]
99	12	10	N#CC(=C1CCN(C(=O)N2CCn3ncnc3C2)CC1)c1ccc(Cl)cc1 [Compound 164, 2-(4-chlorophenyl)-2-(1-(5,6,7,8-tetrahydro-[1,2,4]triazolo[1,5-a]pyrazine-7-carbonyl)piperidin-4-ylidene)acetonitrile]
93	11	18	CC(O)C1CCN(C(=O)N2CCC(=C(C#N)c3ccc(C(F)(F)F)cc3)CC2)CC1 (stereo not drawn) [Compound 151, 2-(1-(4-(1-hydroxyethyl)piperidine-1-carbonyl)piperidin-4-ylidene)-2-(4-(trifluoromethyl)phenyl)acetonitrile]
98	16	10	CN(C(=O)N1CCC(=C(C#N)c2ccc(Cl)cc2)CC1)C1CCOCC1 [Compound 69, 4-((4-chlorophenyl)(cyano)methylene)-N-methyl-N-(tetrahydro-2H-pyran-4-yl)piperidine-1-carboxamide]
96	-6	5	N#CC(=C1CCN(C(=O)N2CCC(O)CC2)CC1)c1ccc(C(F)(F)F)cc1 [Compound 127, 2-(1-(4-hydroxypiperidine-1-carbonyl)piperidin-4-ylidene)-2-(4-(trifluoromethyl)phenyl)acetonitrile]
97	19	13	N#CC(=C1CCN(C(=O)N2CCn3cncc3C2)CC1)c1cc(F)cc(F)c1 [Compound 52, 2-(3,5-difluorophenyl)-2-(1-(5,6,7,8-tetrahydroimidazo[1,5-a]pyrazine-7-carbonyl)piperidin-4-ylidene)acetonitrile]
97	2	9	N#CC(=C1CCN(C(=O)N2CCn3nncc3C2)CC1)c1ccc(Cl)cn1 [Compound 163, 2-(5-chloropyridin-2-yl)-2-(1-(4,5,6,7-tetrahydro-[1,2,3]triazolo[1,5-a]pyrazine-5-carbonyl)piperidin-4-ylidene)acetonitrile]
100	2	15	COC1CCN(C(=O)N2CCC(=C(C#N)c3ccc(C(F)(F)F)cc3)CC2)CC1 [Compound 146, 2-(1-(4-methoxypiperidine-1-carbonyl)piperidin-4-ylidene)-2-(4-(trifluoromethyl)phenyl)acetonitrile]
98	4	28	CCN(CC)C(=O)N1CCC(=C(C#N)c2ccc(OC(F)(F)F)cc2)CC1 [Compound 170, 4-(cyano(4-(trifluoromethoxy)phenyl)methylene)-N,N-diethylpiperidine-1-carboxamide]
92	14	-1	N#CC(=C1CCN(C(=O)N2CCCC(O)CC2)CC1)c1ccc(F)cc1 (stereo not drawn) [Compound 107, 2-(4-fluorophenyl)-2-(1-(4-hydroxyazepane-1-carbonyl)piperidin-4-ylidene)acetonitrile]

Source: patent US12637471B2, “Heterocyclic compounds, compositions, methods of preparation and uses thereof” (Organon R&D Finland Ltd, priority 2021, dated 2026)
